# Source: US20040147561A1, “Pyrid-2-one derivatives and methods of use” (priority 2002, published 2004)
# Structures can show the parent of a compound that is named as a salt.
# Columns and labels:
# [1] = Cell proliferation assay (BrdU incorporation); assay type: cell-based; settings: Homo sapiens, 48 h incubation, cell line not given, read-out: inhibited proliferation IC50
# Experimental: Cell proliferation was measured using a colorimetric immunoassay (B/M Roche #164 7229), based on the measurement of pyrimidine analog BrdU incorporation during DNA synthesis in proliferating cells. Cells, e.g., human PC-3 prostate carconima cells, huFSF normal human foreskin fibroblast cells, HCT 116 human colon carcinoma cells or HT 29 human colon carcinoma cells, were cultured in a 96-well plate for 24 h, until a cell count of 3×10^3 to 6×10^3 cells per well in duplicate wells were achieved, in a well volume of 200 μL. The media was changed and 1 μL of 200× control inhibitors or compounds was added to each well. Cells are incubated for 48 h at 37° C. The cells were labeled with BrdU for 4 h at 37° C. The labeling medium was removed and in one step, the cells were fixed and the DNA was denatured (30 min at RT). Anti-BrdU-POD antibody was added to bind to the BrdU incorporated in newly synthesized cellular DNA (60-90 min at RT). The cells were washed 3× with washing buffer, substrate (100 μL) was added and the cells were incubated for 10 min at RT. The substrate reaction was stopped by adding 25 μL of 1M H2SO4. The amount of BrdU incorporated was quantified by measuring the absorbance at 450 nm using ELISA reader. IC50's were calculated using GraFit (Sigma).
Compound,IC50 [1] [nM],melting point
"CCOC(=O)c1cc(-c2csc(CS(=O)(=O)c3cccs3)n2)c(=O)[nH]c1CC [Example 2, Ethyl 2-ethyl-6-oxo-5-{2-[(thienylsulfonyl)methyl](1,3-thiazol-4-yl)}-1,6-dihydro-3-pyridinecarboxylate]",< 1000,
"CCOC(=O)c1cc(-c2csc(CS(=O)(=O)c3cccs3)n2)c(=O)[nH]c1C [Example 24, Ethyl 2-methyl-6-oxo-5-{2-[(2-thienylsulfonyl)methyl](1,3-thiazol-4-yl)}-1,6-dihydro-3-pyridinecarboxylate]",< 1000,300 °C (dec.)
"CCOC(=O)c1cc(-c2csc(-c3ccnc(NCc4cccnc4)c3)n2)c(=O)[nH]c1C [Example 47, Ethyl 2-methyl-6-oxo-5-(2-(2-((3-pyridinylmethyl)amino)-4-pyridinyl)-1,3-thiazol-4-yl)-1,6-dihydro-3-pyridin carboxylate]",< 1000,280 °C (dec.)
"CCOC(=O)c1cc(-c2csc(CS(=O)(=O)c3ccccc3)n2)c(=O)[nH]c1C(C)C [Example 12, Ethyl 2-isopropyl-6-oxo-5-{2-[(phenylsulfonyl)methyl](1,3-thiazol-4-yl)}-1,6-dihydro-3-pyridinecarboxylate]",< 1000,
"CCOC(=O)c1cc(-c2csc(-c3ccnc(NCCNC(C)C)c3)n2)c(=O)[nH]c1C [Example 50, Ethyl 2-methyl-5-(2-(2-((2-((1-methylethyl)amino)ethyl)amino)-4-pyridinyl)-1,3-thiazol-4-yl)-6-oxo-1,6-dihydro-3-pyridinecarboxylate]",< 1000,260 °C (dec.)
"CCOC(=O)c1cc(-c2csc(CS(=O)(=O)c3ccccc3)n2)c(=O)[nH]c1CC [Example 3, Ethyl 2-ethyl-6-oxo-5-{2-[(phenylsulfonyl)methyl](1,3-thiazol-4-yl)}-1,6-dihydro-3-pyridinecarboxylate]",< 1000,
"CCOC(=O)c1cc(-c2csc(-c3ccnc(NCCN(CC)CC)c3)n2)c(=O)[nH]c1C [Example 52, Ethyl 5-(2-(2-((2-(diethylamino)ethyl)amino)-4-pyridinyl)-1,3-thiazol-4-yl)-2-methyl-6-oxo-1,6-dihydro-3-pyridinecarboxylate]",,250 °C (dec.)
"CCOC(=O)c1cc(-c2csc(-c3ccnc(NCc4ccc(OC)cc4)c3)n2)c(=O)[nH]c1C [Example 64, Ehtyl 5-{2-[2-(4-Methoxy-benzyamino)-pyridin-4-yl]-thiazol-4-yl}-2-methyl-6-oxo-1,6-dihydro-3-pyridinecarboxylate]",,> 260 °C
"CCOC(=O)c1cc(-c2csc(CSc3ccccc3)n2)c(=O)[nH]c1C [Example 28, Ethyl 2-methyl-6-oxo-5-{2-(phenylthiomethyl)(1,3-thiazol-4-yl)}-1,6-dihydro-3-pyridinecarboxylate]",,260 °C (dec.)
CCNCCNC(=O)c1cc(-c2csc(-c3ccnc(NCCNCC)c3)n2)c(=O)[nH]c1C [Example 66],,> 260 °C
"COc1ccc(CNC(=O)c2cc(-c3csc(-c4ccnc(NCc5ccc(OC)cc5)c4)n3)c(=O)[nH]c2C)cc1 (as salt: HCl) [Example 63, 5-{2-[2-(4-Methoxy-benzyamino)-pyridin-4-yl]-thiazol-4-yl}-2-methyl-6-oxo-1,6-dihydropyridine-3-carboxylic acid 4-methoxy-benzylamide]",,280 °C (dec.)
"CCOC(=O)c1cc(-c2csc(-c3ccncc3)n2)c(=O)[nH]c1CC [Example 1, Ethyl 2-ethyl-6-oxo-5-(2-(4-pyridinyl)-1,3-thiazol-4-yl)-1,6-dihydro-3-pyridinecarboxylate]",< 1000,
CCOC(=O)c1cc(-c2csc(-c3ccnc(NCCNC(C)=O)c3)n2)c(=O)[nH]c1C (as salt: HCl) [Example 58],,270 °C (dec.)
"CCOC(=O)c1cc(-c2csc(-c3ccc4c(c3)OCO4)n2)c(=O)[nH]c1C [Example 32, Ethyl 5-(2-(2H-benzo[d]1,3-dioxolan-5-yl)(1,3-thiazol-4-yl))-2-m thyl-6-oxo-1,6-dihydro-3-pyridinecarboxylate]",,230 °C (dec.)
"CCOC(=O)c1cc(-c2csc(-c3ccnc(NCCOc4ccccc4)c3)n2)c(=O)[nH]c1C [Example 91, Ethyl 2-methyl-6-oxo-5-(2-(2-((2-(phenyloxy)ethyl)amino)-4-pyridinyl)-1,3-thiazol-4-yl)-1,6-dihydro-3-pyridinecarboxylate]",,270 °C (dec.)
"CCOC(=O)c1cc(-c2csc(N(C)S(=O)(=O)c3ccccc3)n2)c(=O)[nH]c1C (as salt: salt) [Example 68, Ethyl 2-methyl-5-{2-[methyl(phenylsulfonyl)amino](1,3-thiazol-4-yl)}-6-oxo-1,6-dihydro-3-pyridinecarboxylate]",,231 to 234 °C
"CCOC(=O)c1cc(-c2csc(-c3c(Cl)cncc3Cl)n2)c(=O)[nH]c1C [Example 42, Ethyl 5-[2-(3,5-dichloro-pyridyl-4-yl)-thiazol-4-yl]-2-methyl-6-oxo-1,6-dihydro-3-pyridinecarboxylate]",,290 °C (dec.)
